Results as given in ChEMBL document CHEMBL4842344, “Design, synthesis and biological activity evaluation of novel scopoletin-NO donor derivatives against MCF-7 human breast cancer in vitro and in vivo” (Eur J Med Chem, 2021).
Activity calls are given as the source filed them. The calls are words filed in the database; no cut-off is given here.

How the values were obtained:
MCF7 [1] = test: Inhibition of cell proliferation in human MCF7 cells assessed as increase in intracellular NO production at 25 uM measured after 2.5 hrs by nitric oxide assay; format: functional, cell-based
MDA-MB-231 = test: Antiproliferative activity against human MDA-MB-231 cells assessed as inhibition of cell growth measured after 48 hrs by MTT assay; format: functional, cell-based; details: MDA-MB-231, 48 h
MCF-10A = test: Cytotoxicity against human MCF-10A cells assessed as reduction in cell viability measured after 48 hrs by MTT assay; format: cell-based
MCF7 [2] = test: Antiproliferative activity against human MCF7 cells assessed as inhibition of cell growth measured after 48 hrs by MTT assay; format: functional, cell-based; details: MCF7, 48 h

SMILES | IC50 (MDA-MB-231) | IC50 (MCF7 [2]) | Activity (MCF7 [1]) | IC50 (MCF-10A)
COc1cc2cc(C(=O)NCCc3ccccc3)c(=O)oc2cc1OCCCOc1no[n+]([O-])c1S(=O)(=O)c1ccccc1 | 980 nM | 640 nM | Active | 6330 nM
COc1cc2cc(C(=O)NCCc3ccc(F)cc3)c(=O)oc2cc1OCCCOc1no[n+]([O-])c1S(=O)(=O)c1ccccc1 | 1110 nM | 440 nM | Active | 7950 nM
COc1ccc(CCNC(=O)c2cc3cc(OC)c(OCCCOc4no[n+]([O-])c4S(=O)(=O)c4ccccc4)cc3oc2=O)cc1 | 1540 nM | 750 nM | Active | 5370 nM
COc1cc2cc(C(=O)NCCCc3ccc(F)cc3)c(=O)oc2cc1OCCCOc1no[n+]([O-])c1S(=O)(=O)c1ccccc1 | 690 nM | 600 nM | Active | 8920 nM

Second part, led by results:

IC50 (MDA-MB-231) | IC50 (MCF7 [2]) | SMILES | Activity (MCF7 [1]) | IC50 (MCF-10A)
730 nM | 410 nM | COc1ccc(NC(=O)c2cc3cc(OC)c(OCCCOc4no[n+]([O-])c4S(=O)(=O)c4ccccc4)cc3oc2=O)cc1 | Active | 5470 nM
1190 nM | 740 nM | COc1cc2cc(C(=O)Nc3ccccc3)c(=O)oc2cc1OCCCOc1no[n+]([O-])c1S(=O)(=O)c1ccccc1 | Active | 9670 nM
1390 nM | 2020 nM | COc1cc2cc(N)c(=O)oc2cc1OCCCOc1no[n+]([O-])c1S(=O)(=O)c1ccccc1 | – | 6450 nM
